This is an account of results in ChEMBL document CHEMBL1821665, “Structure-based design and optimization of potent renin inhibitors on 5- or 7-azaindole-scaffolds” (Bioorg Med Chem Lett, 2011).

The target in series [1] is T1, Renin (Homo sapiens, UniProt P00797).
T1 sequence (P00797 whole entry): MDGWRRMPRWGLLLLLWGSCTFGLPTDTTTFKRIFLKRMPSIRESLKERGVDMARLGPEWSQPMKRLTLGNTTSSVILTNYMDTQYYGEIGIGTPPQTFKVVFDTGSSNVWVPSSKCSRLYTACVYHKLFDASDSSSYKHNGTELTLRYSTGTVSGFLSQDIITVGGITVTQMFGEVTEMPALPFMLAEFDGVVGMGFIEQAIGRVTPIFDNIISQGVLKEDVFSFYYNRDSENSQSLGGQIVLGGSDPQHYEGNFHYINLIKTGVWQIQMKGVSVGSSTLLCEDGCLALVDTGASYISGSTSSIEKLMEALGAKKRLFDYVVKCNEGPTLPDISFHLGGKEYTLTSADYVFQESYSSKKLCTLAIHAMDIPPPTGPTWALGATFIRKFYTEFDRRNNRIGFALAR
The series is described as follows: Inhibition of recombinant human renin using Dabcyl-gamma-Abu-Ile-His-Pro-Phe-His-Leu-Val-Ile-His-Thr-EDANS as substrate after 2 hrs by spectrofluorometry.

In series [2] the target is T1, Renin. The series is described as follows: Inhibition of recombinant human renin using Dabcyl-gamma-Abu-Ile-His-Pro-Phe-His-Leu-Val-Ile-His-Thr-EDANS as substrate preincubated for 30 mins followed by 30 mins incubation in human plasma by spectrofluorometry.
The target of series [3] is T1, Renin. Nature of the series: Inhibition of recombinant human renin using Dabcyl-gamma-Abu-Ile-His-Pro-Phe-His-Leu-Val-Ile-His-Thr-EDANS as substrate preincubated for 30 mins followed by 30 mins incubation in mouse C57BL/6 plasma by spectrofluorometry.
A short description of series [4]: Apparent permeability from apical to basolateral side of human Caco2/TC7 cells at 20 uM after 2 hrs in presence of 0.5 to 5% BSA at pH 6.5 to 7.4. The format is ADME, cell-based. The conditions noted are these: Caco-2, pH 6.5. A general note: Passage across Caco-2 layers is used to estimate intestinal permeability.

Each structure is given as a SMILES string.

By IC50 is commonly meant the midpoint of a concentration-inhibition curve. The Papp A→B is how fast a substance crosses the layer from the apical side.

Take `COC[C@H]1CN(C(=O)c2c(Cc3cccc(F)c3C)n(C3CCCCC3)c3cc(OC)ncc23)CCN1`: in series [1], the IC50 was 4090 nM. With `Cc1ccc(F)cc1Oc1c(C(=O)N2CCNCC2)c2cnc(O)cc2n1-c1ccccc1`, the IC50 in series [1] amounted to 24 nM.

As for `O=C(c1c(Oc2ccccc2F)n(-c2ccccc2)c2ncccc12)N1CCNCC1`, the IC50 in series [1] was 5060 nM. In the case of `Cc1c(F)cccc1Cc1c(C(=O)N2CCN[C@@H](C)C2)c2c[nH]c(=O)cc2n1C1CCCCC1`, the IC50 in series [1] is 154 nM. Same read-out and setting: then `Cc1c(F)cccc1Cc1c(C(=O)N2CCNCC2)c2cnc(O)cc2n1C1CCCCC1`, with 116 nM. The same measure, in the same setting: then `Cc1c(F)cc(F)cc1Oc1c(C(=O)N2CCNCC2)c2cccnc2n1-c1ccccc1`, with 504 nM. As for `Cc1c(F)cccc1Cc1c(C(=O)N2CCNCC2)c2cnccc2n1-c1ccccc1`, the IC50 in series [2] came out at 200 nM; in series [1] it was 8 nM; in series [3] it was 410 nM. Besides, in series [4], the Papp A→B at 2 h, 20 µM came out at 0.64 ×10⁻⁶ cm/s. On to `COc1cnc2c(c1)c(C(=O)N1CCNCC1)c(Cc1cccc(F)c1C)n2-c1ccccc1`, for which the 50% inhibitory concentration (IC50) in series [1] turned out to be 4670 nM. Still for that read-out and setting: then `CCc1ccnc2c1c(C(=O)N1CCNCC1)c(Oc1cc(F)ccc1C)n2-c1ccccc1`, with 1230 nM; and `COc1cc2c(cn1)c(C(=O)N1CCNCC1)c(Oc1c(C)cccc1C)n2C1CCCCC1`, with 99 nM. As to `O=C(c1c(Cc2ccccc2)n(-c2ccccc2)c2ccncc12)N1CCNCC1`, the IC50 in series [1] was found to be 3400 nM. The same measure, in the same setting: next, `Cc1ccccc1Oc1c(C(=O)N2CCNCC2)c2cnccc2n1-c1ccccc1`: 847 nM; `Cc1ccc(F)c(C)c1Oc1c(C(=O)N2CCN[C@@H](C)C2)c2c[nH]c(=O)cc2n1C1CCCCC1`: 37 nM; `O=C(c1c(Oc2ccccc2)n(-c2ccccc2)c2ncccc12)N1CCNCC1`: 1830 nM.

For `O=C(c1c(Cc2ccccc2)n(-c2ccccc2)c2ncccc12)N1CCNCC1`, the IC50 in series [1] came out at 6410 nM. For the compound `Cc1c(F)cccc1Cc1c(C(=O)N2CCNCC2)c2cc(O)cnc2n1-c1ccccc1`, the half-inhibitory concentration (IC50) came out at 95 nM in series [2], 6 nM in series [1] and 159 nM in series [3]. As to `COc1cc2c(cn1)c(C(=O)N1CCNCC1)c(Cc1cccc(F)c1C)n2C1CCCCC1`, the IC50 in series [1] stood at 150 nM. Regarding `COc1cc2c(cn1)c(C(=O)N1CCNCC1)c(Cc1cccc(F)c1C)n2-c1ccccc1`, the figures for the IC50 in series [2] and in series [1] were 328 nM and 6 nM, respectively. The Papp A→B at 2 h, 20 µM in series [4] is 2.2 ×10⁻⁶ cm/s. With `Cc1ccccc1Cc1c(C(=O)N2CCNCC2)c2cnccc2n1-c1ccccc1`, the IC50 in series [1] is 520 nM. On the same count and under the same terms, then `Cc1ccc(F)cc1Oc1c(C(=O)N2CCNCC2)c2cccnc2n1-c1ccccc1`, with 396 nM. Still for that read-out and setting: then `COc1ccc2c(C(=O)N3CCNCC3)c(Oc3cc(F)ccc3C)n(-c3ccccc3)c2n1`, with 15 nM; and `Cc1c(F)cc(F)cc1Oc1c(C(=O)N2CCNCC2)c2cnccc2n1-c1ccccc1`, with 650 nM. On the same count and under the same terms, then `Cc1ccccc1Oc1c(C(=O)N2CCNCC2)c2cccnc2n1-c1ccccc1`, with 98 nM.

Turning to `Cc1ccc(F)cc1Oc1c(C(=O)N2CCNCC2)c2cnccc2n1-c1ccccc1`, the IC50 in series [1] is 123 nM. On the same count and under the same terms, next, `Cc1cccc(F)c1Oc1c(C(=O)N2CCNCC2)c2cccnc2n1-c1ccccc1`: 231 nM; `COc1cc2c(cn1)c(C(=O)N1CCN[C@@H](CO)C1)c(Cc1cccc(F)c1C)n2C1CCCCC1`: 3260 nM; `COc1cc2c(cn1)c(C(=O)N1CCNCC1)c(Oc1cc(F)ccc1C)n2-c1ccccc1`: 73 nM. `CCc1ccnc2c1c(C(=O)N1CCNCC1)c(Cc1cccc(F)c1C)n2-c1ccccc1`: the IC50 in series [1] was 89 nM. For `Cc1ccc(F)c(C)c1Oc1c(C(=O)N2CCNCC2)c2cnc(O)cc2n1C1CCCCC1`, the concentration for half-maximal inhibition (IC50) in series [1] is 98 nM. Regarding `CCCc1ccnc2c1c(C(=O)N1CCNCC1)c(Oc1c(C)cccc1C)n2-c1ccccc1`, the IC50 in series [1] was found to be 186 nM.

Turning to `Cc1c(F)cccc1Oc1c(C(=O)N2CCNCC2)c2cnccc2n1-c1ccccc1`, the IC50 in series [1] turned out to be 181 nM.

As for `Cc1c(F)cccc1Cc1c(C(=O)N2CCNCC2)c2cnc(O)cc2n1-c1ccccc1`, in series [1], the IC50 amounted to 88 nM.

`CCCc1ccnc2c1c(C(=O)N1CCNCC1)c(Cc1cccc(F)c1C)n2-c1ccccc1`: in series [1], the IC50 was 218 nM. As for `Cc1ccc(F)cc1Oc1c(C(=O)N2CCNCC2)c2cc(O)cnc2n1-c1ccccc1`, the IC50 is 189 nM in series [2], 6 nM in series [1] and 57 nM in series [3]. Also, the Papp A→B at 2 h, 20 µM in series [4] was 0.45 ×10⁻⁶ cm/s. For `Cc1ccc(F)cc1Oc1c(C(=O)N2CCN[C@@H](C)C2)c2cnc(O)cc2n1C1CCCCC1`, the IC50 in series [1] is 11 nM.
